Data set [1] deals with Calu-6 transplanted tumor nude mice. In words: Toxicity in Calu-6 cell transplanted tumor mouse model. Conditions: Calu-6 cell transplanted tumor model, oral daily; Compound 16 50, 100, 200 mg/kg; Comparative Compound 1 100 mg/kg.
A short description of data set [2]: Effect on proliferation of cells, Cell Titer-Glo, 72 hours. The format is cell-based. Conditions: Mus musculus, BaF3 cells. An outline of the steps:
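Cells were incubated 72 h with ten compound concentrations from 0.000508 μM to 10 μM. Viable cell number was measured by ATP quantification with Cell Titer-Glo, and GI50 values were determined.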

The results in this text go back to US12115152B2, “Pan-RAF kinase inhibitor and use thereof” (HEFEI INSTITUTES OF PHYSICAL SCIENCE, CHINESE ACADEMY OF …, priority 2019, dated 2024).

For `Cc1ccc(NC(=O)c2cccc(C(F)(F)F)c2)cc1-n1cc(-c2cncc(N3CCOCC3)c2)cn1` [Example 16, N-(4-methyl-3-(4-(5-morpholinopyrid-3-yl)-1H-pyrazol-1-yl)phenyl)-3-(trifluoromethyl)benzamide], in data set [1], the toxicity entry is listed as “did not exhibit any toxicity”. In addition, the GI50 in data set [2] was greater than 10 µM.
For `Cc1ccc(NC(=O)c2cccc(C(F)(F)F)c2)cc1-n1cc(-c2cccnc2)cn1` [compound 1, 3-trifluoromethyl-N-(4-methyl-3-(4-(pyrid-3-yl)-1H-pyrazol-1-yl)phenyl)benzamide, reference compound] the same measures were “very strong toxicity as all mice died on Day 8” and 3.3 µM.

A word on the GI50: it is the concentration giving 50% growth inhibition. A higher GI50 goes with lower sensitivity of the cells.
